Source: US20260305610A1, “TRIAZOLE COMPOUND, AND PREPARATION METHOD THEREFOR, HERBICIDAL COMPOSITION AND USE THEREOF” (QINGDAO KINGAGROOT CHEMICAL COMPOUND CO., LTD., priority 2023, published 2026)

Key:
[1] = test system: monocotyledonous and dicotyledonous weeds; assay: Pre-emergence test experiment (weeds); type: in vivo; parameters: key: 9: completely dead; 8: growth control rate is greater than or equal to 90% and less than 100%; 7: growth control rate is greater than or equal to 80% and less than 90%; 6: growth control rate is greater than or equal to 70% and less than 80%; growth control rate is greater than or equal to 50% and less than 70%; 4: growth control rate is greater than or equal to 30% and less than 50%; growth control rate is greater than or equal to 20% and less than 30%; growth control rate is greater than or equal to 10% and less than 20%; growth control rate is less than 10%; 0: no effect; details: 30 g a.i./ha
major crops = assay: Pre-emergence test experiment (crops); type: in vivo; parameters: key: 9: completely dead; 8: growth control rate is greater than or equal to 90% and less than 100%; 7: growth control rate is greater than or equal to 80% and less than 90%; 6: growth control rate is greater than or equal to 70% and less than 80%; growth control rate is greater than or equal to 50% and less than 70%; 4: growth control rate is greater than or equal to 30% and less than 50%; growth control rate is greater than or equal to 20% and less than 30%; growth control rate is greater than or equal to 10% and less than 20%; growth control rate is less than 10%; 0: no effect; details: 30 g a.i./ha

Structure (SMILES)	Pre-emergence activity level (growth control rate) on Amaranthus retroflexus [1]	Pre-emergence activity level (growth control rate) on Descurainia sophia [1]	Pre-emergence activity level (growth control rate) on Digitaria sanguinalis [1]	Pre-emergence activity level (growth control rate) on Setaria viridis [1]	Pre-emergence activity level (growth control rate) on Solanum nigrum [1]	Pre-emergence activity level (growth control rate) on Veronica [1]	Pre-emergence plant damage level (growth control rate) on Corn (major crops)	Pre-emergence plant damage level (growth control rate) on Cotton (major crops)	Pre-emergence plant damage level (growth control rate) on Soybean (major crops)
Cc1ccc(-n2cnc(C(F)(F)F)n2)nc1Oc1ccc(F)c(OC(F)(F)F)c1 [Compound 66]	9	9	9	9	9	9	0	0	0
COc1cc(Oc2cccc(OC(F)(F)F)c2)nc(-n2cnc(C(F)F)n2)c1 [Compound 67]	9	9	7 (growth control rate is greater than or equal to 80% and less than 90%)	7 (growth control rate is greater than or equal to 80% and less than 90%)	–	9	0	0	0
COCc1cc(Oc2cccc(C(F)(F)F)c2)nc(-n2cnc(C(F)(F)F)n2)c1 [Compound 68]	9	8 (growth control rate is greater than or equal to 90% and less than 100%)	7 (growth control rate is greater than or equal to 80% and less than 90%)	8 (growth control rate is greater than or equal to 90% and less than 100%)	7 (growth control rate is greater than or equal to 80% and less than 90%)	8 (growth control rate is greater than or equal to 90% and less than 100%)	0	0	0
CCc1ccc(-n2cnc(C(F)(F)F)n2)nc1Oc1cccc(C(C)(F)F)c1 [Compound 69]	9	9	9	9	9	9	0	0	0
Cc1ccc(-n2cnc(C(F)F)n2)nc1Oc1ccc(F)c(C(F)(F)F)c1 [Compound 70]	9	9	9	9	9	9	0	0	0
CCc1ccc(-n2cnc(C(F)(F)F)n2)nc1Oc1cccc(OC(F)(F)F)c1 [Compound 71]	9	9	9	9	9	9	0	0	0
